In patent US20080081781A1, “Methods and compositions for the treatment of metabolic syndrome” (priority 2004, published 2008):

Test system: PKC
Assay: Cellular PKC activity in HepG2 cells (PepTag assay)
Format: cell-based, human
Description: To determine whether berberine directly activates PKC, pGL3-1.5kIRP transfected HepG2 cells were either not treated, treated with 0.2 μM of calphostin C, 5 μg/ml of berberine or 0.5 μM of PKC activator phorbol-12-myristate-13-acetate (PMA) (Gandino, Oncogene, 5(%), 721-725 (1990) or combinations thereof for eight hours. The activity of total PKC in the control and berberine treated cells was assessed by PKC activity assay.
Cellular PKC activity was analyzed using the PepTag® Assay for Non-Radioactive Detection of Protein Kinase-C or cAMP-Dependent Protein Kinase kit (Promega) according to the protocol. Briefly, after homogenization and partial purification, 10 μl of sample protein was mixed with 5 μl of PepTag® Cl peptide (specific substrate of PKC), 5 μl of reaction buffer and 5 μl of PKC activator solution in a 25 μl reaction system. The reactions were performed at 30° C. for 30 minutes. Then, the samples were loaded onto a 0.8% agarose gel. […] They were transferred to a 96-well plate and quantified using densitometry according to the supplier's protocol. The catalytic activity of total PKC of a specific sample was expressed as pmol/min/mg, representing the number of picomoles of phosphate transferred to the substrate per minute per milligram of proteins of the sample.

COc1ccc2cc3[n+](cc2c1OC)CCc1cc2c(cc1-3)OCO2 [berberine]
time at which elevation of PKC activity was first observed (after berberine treatment): 0.5 h | PKC activity in liver cells (time-dependent): increased
